Experimental findings from patent US6369047B2, “Androgenic steroid compounds and a method of making and using the same” (Research Triangle Institute, priority 1997, dated 2002) are described below.

The test system of data set [1] is Male Rats. Put plainly: Long Term Androgenic Activity in Male Rats. Format: in vivo, rat.
Data set [2] addresses T1, androgen receptor from rat ventral prostate (Rattus norvegicus, UniProt P15207).
T1 construct: androgen receptor from rat ventral prostate; from tissue; host or cells: rat ventral prostate
T1 sequence (P15207 1-902): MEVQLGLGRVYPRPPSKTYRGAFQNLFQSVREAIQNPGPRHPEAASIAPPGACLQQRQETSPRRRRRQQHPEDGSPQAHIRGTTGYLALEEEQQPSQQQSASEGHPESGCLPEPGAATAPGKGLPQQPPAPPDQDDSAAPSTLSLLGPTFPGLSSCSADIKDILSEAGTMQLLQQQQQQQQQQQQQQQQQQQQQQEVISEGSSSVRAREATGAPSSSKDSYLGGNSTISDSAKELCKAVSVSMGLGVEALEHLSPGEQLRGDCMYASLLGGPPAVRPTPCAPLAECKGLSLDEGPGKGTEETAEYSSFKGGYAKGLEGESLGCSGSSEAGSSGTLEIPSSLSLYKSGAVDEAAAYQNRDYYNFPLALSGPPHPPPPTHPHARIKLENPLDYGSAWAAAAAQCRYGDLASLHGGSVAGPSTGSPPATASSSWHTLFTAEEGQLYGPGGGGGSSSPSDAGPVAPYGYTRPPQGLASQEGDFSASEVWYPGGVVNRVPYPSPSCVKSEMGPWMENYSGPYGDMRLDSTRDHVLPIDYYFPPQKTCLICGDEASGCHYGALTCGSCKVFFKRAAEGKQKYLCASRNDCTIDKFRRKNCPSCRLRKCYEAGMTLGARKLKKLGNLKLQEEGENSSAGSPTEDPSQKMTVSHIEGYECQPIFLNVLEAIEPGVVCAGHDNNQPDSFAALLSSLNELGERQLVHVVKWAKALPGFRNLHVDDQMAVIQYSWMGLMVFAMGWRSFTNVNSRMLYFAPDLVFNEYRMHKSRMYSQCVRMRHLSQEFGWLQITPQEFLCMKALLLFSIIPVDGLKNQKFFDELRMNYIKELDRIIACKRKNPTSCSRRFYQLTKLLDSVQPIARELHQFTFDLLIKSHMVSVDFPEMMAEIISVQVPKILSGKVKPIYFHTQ
Put plainly: Androgen RBA: relative binding to androgen receptor. The conditions noted are these: Dihydrotestosterone = 100.

Data set [3] concerns immature female rats. As to the kind of experiment: Estrogenic Activity, subcutaneous administration to immature female rats. Format: in vivo, rat. As to conditions: Estradiol = 100. Here is the method: (§1) Additionally, Estrogen RBA was determined by relative binding (Estradiol=100) to estrogen receptor from immature female rat uterus, while Estrogenic Activity was determined by subcutaneous administration to immature female rats (Estradiol=100).

Data set [4] deals with immature castrated male rats. Put plainly: Androgenic Activity, subcutaneous administration to immature castrated male rats. Format: in vivo, rat. The conditions noted are these: for Androgenic Activity, Levator Ani / Androgenic Activity, Seminal Vesicles / Androgenic Activity, Ventral Prostate: subcutaneous, Testosterone = 100. The method, then: Androgenic Activity was also evaluated using subcutaneous administration to immature castrated male rats (Testosterone=100).

In data set [5] the target is T2, estrogen receptor from immature female rat uterus (Rattus norvegicus, UniProt P06211).
T2 construct: estrogen receptor from immature female rat uterus; from tissue; host or cells: immature female rat uterus
T2 sequence (P06211 1-600): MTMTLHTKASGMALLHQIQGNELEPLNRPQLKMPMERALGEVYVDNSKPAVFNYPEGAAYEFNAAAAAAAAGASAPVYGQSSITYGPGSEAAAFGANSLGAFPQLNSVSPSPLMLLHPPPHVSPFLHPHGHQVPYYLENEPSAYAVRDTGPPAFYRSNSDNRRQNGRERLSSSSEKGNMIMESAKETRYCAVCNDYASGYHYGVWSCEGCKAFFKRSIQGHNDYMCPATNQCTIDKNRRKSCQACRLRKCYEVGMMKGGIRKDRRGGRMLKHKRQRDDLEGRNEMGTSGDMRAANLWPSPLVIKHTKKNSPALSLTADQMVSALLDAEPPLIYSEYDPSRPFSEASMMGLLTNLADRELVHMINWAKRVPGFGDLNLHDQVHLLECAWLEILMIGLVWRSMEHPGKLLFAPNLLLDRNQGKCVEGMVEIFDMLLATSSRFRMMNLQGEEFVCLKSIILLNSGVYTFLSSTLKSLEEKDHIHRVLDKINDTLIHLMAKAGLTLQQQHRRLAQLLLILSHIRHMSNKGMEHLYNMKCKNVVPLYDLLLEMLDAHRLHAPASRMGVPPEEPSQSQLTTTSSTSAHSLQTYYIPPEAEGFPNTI
As to the kind of experiment: Estrogen RBA: relative binding to estrogen receptor. As to conditions: Estradiol = 100. The method, then: as §1

For `CCCCCCC(=O)O[C@H]1CC[C@H]2[C@H]3[C@H]([C@@H](C)C[C@]12C)[C@H]1CCC(=O)C=C1C[C@H]3C` [RTI 147-029, 7α,11β-dimethyl-17β-heptanoyloxyestr-4-en-3-one], the “Final Body Weight (% change from control)” value in data set [1] (0.3 mg, week 1 after dose) is listed as 9%; in data set [1] (0.3 mg, week 2 after dose), 1%; in data set [1] (0.3 mg, week 4 after dose) it was 3%; in data set [1] (0.3 mg, week 6 after dose) it was −1%; in data set [1] (0.3 mg, week 8 after dose) it was −10%; in data set [1] (0.3 mg, week 10 after dose), −2%. Also, the “Final Body Weight (% change from control)” value in data set [1] (0.6 mg, week 1 after dose) is 15%; in data set [1] (0.6 mg, week 2 after dose), 6%; in data set [1] (0.6 mg, week 4 after dose) it was 1%; in data set [1] (0.6 mg, week 6 after dose), 0%; in data set [1] (0.6 mg, week 8 after dose), −16%; in data set [1] (0.6 mg, week 10 after dose), 1%. Also, the “Seminal Vesicle Weight (% change from control)” value was determined as 571% in data set [1] (0.3 mg, week 1 after dose); 580% in data set [1] (0.3 mg, week 2 after dose); 438% in data set [1] (0.3 mg, week 4 after dose); 603% in data set [1] (0.3 mg, week 6 after dose); 312% in data set [1] (0.3 mg, week 8 after dose); 426% in data set [1] (0.3 mg, week 10 after dose). The “Seminal Vesicle Weight (% change from control)” value in data set [1] (0.6 mg, week 1 after dose) came out at 968%; in data set [1] (0.6 mg, week 2 after dose), 1428%; in data set [1] (0.6 mg, week 4 after dose), 1222%; in data set [1] (0.6 mg, week 6 after dose), 1777%; in data set [1] (0.6 mg, week 8 after dose), 1044%; in data set [1] (0.6 mg, week 10 after dose) it was 924%. In addition, the “Ventral Prostate Weight (% change from control)” value in data set [1] (0.3 mg, week 1 after dose) came to 368%; in data set [1] (0.3 mg, week 2 after dose), 582%; in data set [1] (0.3 mg, week 4 after dose) it was 583%; in data set [1] (0.3 mg, week 6 after dose) it was 649%; in data set [1] (0.3 mg, week 8 after dose) it was 340%; in data set [1] (0.3 mg, week 10 after dose), 562%. The “Ventral Prostate Weight (% change from control)” value in data set [1] (0.6 mg, week 1 after dose) was found to be 628%; in data set [1] (0.6 mg, week 2 after dose), 778%; in data set [1] (0.6 mg, week 4 after dose) it was 1145%; in data set [1] (0.6 mg, week 6 after dose), 1810%; in data set [1] (0.6 mg, week 8 after dose), 858%; in data set [1] (0.6 mg, week 10 after dose) it was 749%. Moreover, the “potency and duration of action as compared with testosterone enanthate” value in data set [1] (in words, refers to Table 2) was “greater potency and longer duration of action”.
`C[C@@H]1CC2=CC(=O)CC[C@@H]2[C@@H]2[C@@H]1[C@@H]1CC[C@H](O)[C@@]1(C)C[C@@H]2C` [RTI 1176-012, 7α,11β-dimethyl-17β-hydroxyestr-4-en-3-one]: the melting point is 149 to 151 °C. The “Androgen RBA” value in data set [2] amounted to 194. In addition, in data set [3], the “Estrogenic Activity” value turned out to be 0.8. The “acute androgenic activity as compared with 7α-methyl-19-nortesterone” value in data set [4] (in words, refers to Table 1) was “marked increase in acute androgenic activity”. Also, in data set [4], the “Androgenic Activity, Levator Ani” value stood at 3800; the “Androgenic Activity, Seminal Vesicles” value came to 1540; the “Androgenic Activity, Ventral Prostate” value was 1480. In addition, in data set [5], the “Estrogen RBA” value is 0.6.
As for `C[C@@H]1CC2=CC(=O)CC[C@@H]2[C@H]2CC[C@]3(C)[C@@H](O)CC[C@H]3[C@@H]21` [RTI 1176-024, 7α-methyl-19-nortestosterone], in data set [4], the “Androgenic Activity, Levator Ani” value was 2510; the “Androgenic Activity, Seminal Vesicles” value turned out to be 790; the “Androgenic Activity, Ventral Prostate” value came out at 609.
Take `C[C@@H]1C[C@H]2CC(=O)CC[C@@H]2[C@@H]2[C@@H]1[C@@H]1CC[C@H](O)[C@@]1(C)C[C@@H]2C` [RTI 1471-032, 7α,11β-dimethyl-17β-hydroxy-5α-estran-3-one]: the “Estrogenic Activity” value in data set [3] is given as 0.7. In data set [4], the “Androgenic Activity, Seminal Vesicles” value came out at 377 and the “Androgenic Activity, Ventral Prostate” value is given as 742.
Turning to `C=C1C[C@]2(C)[C@@H](O)CC[C@H]2[C@H]2[C@H]1[C@H]1CCC(=O)C=C1C[C@H]2C` [RTI 1471-034, 17β-Hydroxy-7α-methyl-11-methyleneestr-4-en-3-one], the “Androgen RBA” value in data set [2] is 176. Also, in data set [4], the “Androgenic Activity, Seminal Vesicles” value is recorded as 993 and the “Androgenic Activity, Ventral Prostate” value is 1519-2148.
As for `CCCCCCC(=O)O[C@H]1CC[C@H]2[C@@H]3CCC4=CC(=O)CC[C@]4(C)[C@H]3CC[C@]12C` [Testosterone enanthate, reference compound], the “Final Body Weight (% change from control)” value in data set [1] (0.6 mg, week 1 after dose) is 0%; in data set [1] (0.6 mg, week 2 after dose) it was 6%; in data set [1] (0.6 mg, week 4 after dose), −7%; in data set [1] (0.6 mg, week 6 after dose), 0%; in data set [1] (0.6 mg, week 8 after dose), 6%; in data set [1] (0.6 mg, week 10 after dose), 0%. Further, the “Seminal Vesicle Weight (% change from control)” value in data set [1] (0.6 mg, week 1 after dose) is 452%; in data set [1] (0.6 mg, week 2 after dose), 318%; in data set [1] (0.6 mg, week 4 after dose), 281%; in data set [1] (0.6 mg, week 6 after dose) it was 248%; in data set [1] (0.6 mg, week 8 after dose) it was 187%; in data set [1] (0.6 mg, week 10 after dose), 179%. Further, the “Ventral Prostate Weight (% change from control)” value in data set [1] (0.6 mg, week 1 after dose) came out at 409%; in data set [1] (0.6 mg, week 2 after dose) it was 339%; in data set [1] (0.6 mg, week 4 after dose), 291%; in data set [1] (0.6 mg, week 6 after dose), 405%; in data set [1] (0.6 mg, week 8 after dose) it was 150%; in data set [1] (0.6 mg, week 10 after dose), 130%.
